# Results taken from ChEMBL document CHEMBL6177933, “Discovery of Sophoridine α-Aryl Propionamide Derivative ZM600 as a Novel Antihepatic Fibrosis Agent” (J Med Chem, 2024).
# Activity calls are given as the source filed them. No cut-off for these calls is given here.
# Columns and labels:
# RAW264.7 [1] = test: Inhibition of LPS-induced NFkappaB transcriptional activity in mouse RAW264.7 cells at 10 uM preincubated for 2 hrs followed by LPS stimulation and measured after 6 hrs by luciferase reporter gene assay relative to control; assay type: cell-based; details: time 8.0 hrs
# [2] = Cytotoxicity against human LX-2 cells assessed as reduction in cell viability measured after 48 hrs by CCK-8 assay; assay type: toxicity, cell-based
# RAW264.7 [3] = test: Inhibition of LPS-induced NFkappaB transcriptional activity in mouse RAW264.7 cells at 5 uM preincubated for 2 hrs followed by LPS stimulation and measured after 6 hrs by luciferase reporter gene assay relative to control; assay type: cell-based; details: time 8.0 hrs
# RAW264.7 [4] = test: Inhibition of LPS-induced NFkappaB transcriptional activity in mouse RAW264.7 cells at 20 uM preincubated for 2 hrs followed by LPS stimulation and measured after 6 hrs by luciferase reporter gene assay relative to control; assay type: cell-based; details: time 8.0 hrs
# RAW264.7 [5] = test: Antiinflammatory activity in mouse RAW264.7 cells assessed as inhibition of TGFbeta1-induced collagen 1 expression at 5 to 20 uM preincubated for 2 hrs […] and measured after 48 hrs by Western blot analysis; assay type: functional, cell-based; details: dose 5-20 µM, time 50.0 hrs
# RAW264.7 [6] = test: Antiinflammatory activity in mouse RAW264.7 cells assessed as inhibition of TGFbeta1-induced alpha-SMA expression at 5 to 20 uM preincubated for 2 hrs […] and measured after 48 hrs by Western blot analysis; assay type: functional, cell-based; details: dose 5-20 µM, time 50.0 hrs
SMILES,fold change (FC) (RAW264.7 [1]),IC50 at 48 h [2] [µM],fold change (FC) (RAW264.7 [3]),fold change (FC) (RAW264.7 [4]),inhibition (RAW264.7 [5]),inhibition (RAW264.7 [6])
COC(=O)CCC[C@@H]1[C@H]2CCCN3CCC[C@H](CN1C(=O)[C@H](C)c1ccc4cc(OC)ccc4c1)[C@@H]23,0.99,63.5,1.02,0.94,,
COC(=O)CCC[C@@H]1[C@H]2CCCN3CCC[C@H](CN1C(=O)C(C)c1ccc(CC(C)C)cc1)[C@@H]23 (some centres not stated),1.04,53,1.03,1,,
COC(=O)CCC[C@@H]1[C@H]2CCCN3CCC[C@H](CN1C(=O)Cc1ccc(-n4c(C)ccc4C)cc1)[C@@H]23,0.93,96,1.05,1.08,,
O=C1CCC[C@@H]2[C@H]3CCCN4CCC[C@H](CN12)[C@@H]34 [SOPHORIDINE],0.94,> 100,1.03,1.05,inactive,inactive
COC(=O)CCC[C@@H]1[C@H]2CCCN3CCC[C@H](CN1C(=O)C(C)c1ccc(-c4ccccc4)cc1)[C@@H]23 (some centres not stated),1.08,21.9,1.01,1.04,,
COC(=O)CCC[C@@H]1[C@H]2CCCN3CCC[C@H](CN1C(=O)COC(=O)Cc1ccccc1Nc1c(Cl)cccc1Cl)[C@@H]23,0.93,14.7,0.93,0.81,,
COC(=O)CCC[C@@H]1[C@H]2CCCN3CCC[C@H](CN1C(=O)Cc1ccc(-c4ccccc4)c(F)c1)[C@@H]23,1.13,14.5,0.97,1.04,,
COC(=O)CCC[C@@H]1[C@H]2CCCN3CCC[C@H](CN1C(=O)CC1=C(C)/C(=C/c4ccc([S+](C)[O-])cc4)c4ccc(F)cc41)[C@@H]23 (some centres not stated),1,61.8,0.99,0.99,,
COC(=O)CCC[C@@H]1[C@H]2CCCN3CCC[C@H](CN1C(=O)Cc1ccc(-c4ccccc4)cc1)[C@@H]23,0.94,31.7,0.99,0.85,,
COC(=O)CCC[C@@H]1[C@H]2CCCN3CCC[C@H](CN1C(=O)Cc1ccc(-c4cccc(F)c4)cc1)[C@@H]23,1.16,53.3,1.21,1.04,,
